The values that follow come from US20220235343A1, “NOVEL ADP-RIBOSYL CYCLASE AND INHIBITOR THEREOF” (INDUSTRIAL COOPERATION FOUNDATION CHONBUK NATIONAL …, priority 2019, published 2022).

The target in experiment [1] is T1, new ADP-ribosyl cyclase (ADPRC) of SEQ ID NO 1 (Mus musculus, UniProt P14094).
T1 construct: FLAG (N); made in house; host or cells: HEK293 cells or MES13 cells (transient transfection)
Description: Inhibition of NAD glycohydrolase (NADase) activity of new ADPRC. It counts as biochemical. As to conditions: as compared to the control group; ε-NAD substrate, 37° C. 1 hour; inhibitor concentration not given; FIG. 5. Here is the method:
In order to investigate the ADP-ribosyl cyclase (ADPRC) activity of SEQ ID NO 1, a FLAG-ADPRC plasmid was prepared by ligating a cDNA sequence encoding ADPRC into a FLAG-CMV-2 vector and the overexpression of new ADPRC was induced by treating HEK293 cells or MES13 cells using a transfection reagent. The overexpressed new ADPRC was lysed with a lysis buffer. 45 μL of the lysed sample was treated with 5 μL of 2 mM ε-NAD (nicotinamide 1,N6-ethenoadenine dinucleotide) and incubated at 37° C. for 1 hour. Then, the enzyme-substrate reaction was stopped by treating with 50 μL of 10% trichloroacetic acid. After centrifuging for 10 minutes and adding 80 μL of the supernatant to 720 μL of 0.1 M sodium phosphate buffer, absorbance was measured at 297 nm (excitation) and 410 nm (emission) with a fluorescence spectrometer.
In order to find an inhibitor which inhibits the activation of new ADP-ribosyl cyclase (ADPRC) of SEQ ID NO 1, 5 μL of each of 4,4′-dihydroxyazobenzene (4-DHAB, TCI (Japan)), 2,2′-dihydroxyazobenzene (2-DAB, Sigma-Aldrich (USA)), 2-(3,4-dihydroxyphenyl)-3,5,7-trihydroxychromen-4-one (Quercetin, Sigma-Aldrich (USA)) and San4825 (synthesized by Kannt A et al. [Kannt A, Sicka K, Kroll K, Kadereit D, Gogelein H. Naunyn. Schmiedebergs. Arch. Pharmacol. 385: 717-727, 2012], China) and 2-(1,3-benzoxazol-2-ylamino)-1-methylquinazoline-4(1H)-one (2-BMQ) and 1,4-dicaffeoylquinic acid (1,4-DCQA, Biopurify (China), hereinafter DCQA), which were newly found through screening, was reacted with 40 μL of new ADPRC in iced water for 15 minutes. Then, reaction was conducted at 37° C. for 1 hour after treating with 5 μL of 2 mM ε-NAD (nicotinamide 1,N6-ethenoadenine dinucleotide). Then, the enzyme-substrate reaction was stopped by treating with 50 μL of 10% trichloroacetic acid. After centrifuging for 10 minutes and adding 80 μL of the supernatant to 720 μL of 0.1 M sodium phosphate buffer, absorbance was measured at 297 nm (excitation) and 410 nm (emission) using a fluorescence spectrometer.

Experiment [2] has as its system TGF-β1, fibronectin and collagen IV in kidney tissue. The experiment can be described thus: Expression of TGF-β1, fibronectin and collagen IV in kidney tissue of renal disease mouse model (immunofluorescence). It is filed as in vivo. As to conditions: STZ mice, DCQA i.p. every day for 6 weeks, FIG. 8. The protocol:
The change in the expression of TGF-β1, fibronectin and collagen IV in the kidney tissue of a renal disease mouse model was measured by the method reported by Kim S Y et al. [Kim S Y, Park K H, Gul R, Jang K Y, Kim U H. Am. J. Physiol. Renal Physiol. 296: F291-F297, 2009].
Specifically, 0.2 mL of 50 mM citrate buffer (pH 4.8) (control group and DCQA group) or 200 μL of 5 mg/mL streptozotocin (STZ, Sigma-Aldrich (USA)) dissolved in 50 mM citrate buffer (STZ group and STZ+DCQA group) was intraperitoneally injected to C57BL/6J mice. Blood glucose was measured from day 2 after the STZ injection and the mice whose blood glucose level was 300 mg/dL were divided into an STZ group and an STZ+DCQA group. […] In order to investigate the possibility as a therapeutic agent for a renal disease, the mouse was sacrificed and serum and kidney were taken. Some of the extracted kidney was fixed in 10% formalin. The kidney tissue fixed in 10% formalin was cut into kidney tissue sections on a slide glass using a cryostat microtome. The kidney tissue sections were washed with a TTBS (Tris-buffered saline (TBS) with 0.1% Tween 20) buffer and then incubated with a TTBS buffer containing 1% bovine serum albumin (BSA) for 1 hour. The tissues were reacted with primary antibodies (TGF-β1 (Santa Cruz, USA), fibronectin (Santa Cruz, USA) and collagen IV (Abcam, UK)) diluted in a TTBS buffer containing 1% bovine serum albumin (BSA) to 1:200 at 4° C. for 12 hours or longer. After washing the tissues that reacted with the primary antibodies 3 times with a TTBS buffer, they were reacted with FITC-labeled secondary antibodies diluted in a TTBS buffer to 1:200 in the dark at room temperature for 1 hour. Then, after washing 3 times with a TTBS buffer, a cover glass was attached using a mounting solution. The stained kidney tissue was observed using a fluorescence microscope (Carl Zeiss, Germany) for observing green fluorescence.

Experiment [3] concerns hypertension mouse model (L-NAME, C57BL/6J mouse). Description: Blood pressure and creatinine clearance rate in L-NAME hypertension mouse model. As to conditions: DCQA 9 μg/mL 100 μL intraperitoneally every day for 7 days. It counts as in vivo. The protocol:
The blood pressure and creatinine clearance rate in a hypertension mouse model were measured by the method reported by Allagnat et al. [Allagnat F, Haefliger J A, Lambelet M, Longchamp A, Berard X, Mazzolai L, Corpataux J M, Deglise S. Eur. J. Vasc. Endovasc. Surg. 51: 733-742, 2016] and Kim S Y et al. [Kim S Y, Park K H, Gul R, Jang K Y, Kim U H. Am. J. Physiol. Renal Physiol. 296: F291-F297, 2009]
Specifically, 0.2 mL of 8 mg of L-NAME (Nw-nitro-L-arginine-methyl-ester, Sigma-Aldrich, USA) dissolved in 1 mL of saline was orally administered to C57BL/6J mouse every day. On days 7 and 14 of the oral administration, blood pressure was measured at the tail of the mouse. […] On day 6 after the DCQA treatment, the mouse was put in a metabolic cage and urine was collected for 24 hours.
After measuring the blood pressure of the mouse (FIG. 11A), the mouse was sacrificed and serum was obtained.
Creatinine clearance rate was calculated by measuring the creatinine levels in urine and serum using a creatinine assay kit (Bioassay Systems, USA) (FIG. 11B).

For `O=C(/C=C/c1ccc(O)c(O)c1)OC1[C@H](O)CC(OC(=O)/C=C/c2ccc(O)c(O)c2)(C(=O)O)C[C@H]1O` (stereo partly drawn) [DCQA, 1,4-dicaffeoylquinic acid], in experiment [1], the “NAD glycohydrolase (NADase) activity inhibited” value came to 79.64%. In addition, in experiment [2], the “expression level of TGF-β1 increased by STZ, decreased by DCQA” value is reported as “to the level of the control group”; the “expression level of collagen IV increased by STZ, decreased by DCQA” value was “to the level of the control group”; the “expression level of fibronectin increased by STZ, decreased by DCQA” value was “to the level of the control group”. In addition, the blood pressure result in experiment [3] (FIG. 11A) is “no effect of lowering blood pressure”. Further, the creatinine clearance rate entry in experiment [3] (FIG. 11B) is reported as “increase in creatinine clearance rate”.
